Measurements: patent US10392383B2, “3-(1H-benzo[d]imidazol-2-yl)-1H-pyrazolo[4,3-b]pyridines and therapeutic uses thereof” (Samumed, LLC, priority 2015, dated 2019)

How the values were obtained:
[1] = system: primary human mesenchymal stem cells (hMSCs); test: Induction of chondrogenesis in human mesenchymal stem cells (nodule staining with Rhodamine B / Nile Red); format: cell-based; conditions: for Emax: TGF-β3 (10 ng/mL) as positive control, read-out: Max. Activity as % TGF-β3 activity; for EC50: concentration required to induce 50% levels of chondrogenesis vs TGF-β3, read-out: Conc (nM) of 50% TGF-β3 activity
Protocol: Representative compounds were screened using primary human mesenchymal stem cells (hMSCs) to determine their ability to induce chondrogenesis (process by which cartilage is developed).
Human Mesenchymal Stem Cell Culture: Primary human mesenchymal stem cells (hMSCs) were purchased from Lonza (Walkersville, Md.) and expanded in Mesenchymal Stem Cell Growth Media (Lonza). Cells between passage 3 and 6 were used for the experiments.
Compound Screening: Each compound was dissolved in DMSO as a 10 mM stock and used to prepare compound source plates. For the 96 well assay, serial dilution (1:3, 6-point dose-response curves from 2700 nM to 10 nM) and compound transfer was performed using the ECHO 550 (Labcyte, Sunnyvale, Calif.) into 96-well clear bottom assay plates (Greiner Bio-One) with appropriate DMSO backfill for a final DMSO concentration of 0.03%. hMSCs were plated at 20,000 cells/well in 250 μL/well Incomplete Chondrogenic Induction Medium (Lonza; DMEM, dexamethasone, ascorbate, insulin-transferrin-selenium [ITS supplement], gentamycin-amphotericin [GA-1000], sodium pyruvate, proline and L-glutamine). TGF-β3 (10 ng/mL) was used as a positive control for differentiation while negative control wells were treated with 75 nL DMSO for normalization and calculating EC50 values. For the 384 well assay, serial dilution (1:3, 8-point dose-response curves from 5000 nM to 2.2 nM) and compound transfer was performed using the ECHO 550 (Labcyte, Sunnyvale, Calif.) into 384-well clear bottom assay plates (Greiner Bio-One) with appropriate DMSO backfill for a final DMSO concentration of 0.03%. hMSCs were plated at 8,000 cells/well in 80 μL/well Incomplete Chondrogenic Induction Medium (Lonza; DMEM, dexamethasone, ascorbate, insulin-transferrin-selenium [ITS supplement], gentamycin-amphotericin [GA-1000], sodium pyruvate, proline and L-glutamine). TGF-β3 (10 ng/mL) was used as a positive control for differentiation while negative control wells were treated with 25 nL DMSO for normalization and calculating EC50 values. Cells were incubated at 37° C. and 5% CO2 for 6 days. To image chondrogenic nodules, the cells were fixed using 4% formaldehyde (Electron Microscopy Sciences), and stained with 2 μg/mL Rhodamine B (Sigma-Aldrich) and 20 μM Nile Red (Sigma-Aldrich) [Johnson K., et. al, A Stem Cell-Based Approach to Cartilage Repair, Science, (2012), 336(6082), 717-721]. The nodules imaged (25 images per well for 96 well plates and 9 images per well for 384 well plates at 10× magnification) by excitation at 531 nm and emission at 625 nm and quantified using the CellInsight CX5 (Thermo Scientific). Area of nodules in each well was normalized to the average of 3 DMSO treated wells on the same plate using Excel (Microsoft Inc.). The normalized averages (fold change over DMSO) of 2 or 3 replicate wells for each compound concentration were calculated. Due to solubility limitations of some of the compounds, curve fitting was incomplete leading to inaccurate EC50 determinations.
Using TGF-β3 as a positive control, the concentration of representative compounds required to induce 50% levels of chondrogenesis is reported. In addition, the maximum activity of each compound and the respective dose that each compound reached maximum chondrogenesis activity is reported.

IL-6 (THP-1 cells) = test: IL-6 inhibition in LPS-stimulated THP-1 monocytes (HTRF); format: cell-based; conditions: Homo sapiens, IL-6 HTRF; for EC50: 500 ng/mL LPS, Table 6; for inhibition at 10 µM: LPS, Table 6, read-out: percent inhibition at 10 μM (given in parentheses for EC50 >10 μM)
Outline: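 THP-1 cells in 1% FBS pre-incubated 2 h with compound (10-point 1:3 series from 10 μM, 0.1% DMSO), then stimulated with 500 ng/mL LPS for 22 h at 37 °C. IL-6 measured by HTRF 665/620 ratio, normalized to DMSO; EC50 by four-parameter fit, or % inhibition at 10 μM when EC50 >10 μM.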

Structure (SMILES)	EC50 (IL-6 (THP-1 cells)) [nM]	EC50 [1] [nM]	Emax [1] [%]	inhibition at 10 µM (IL-6 (THP-1 cells)) [%]
CCC(=O)Nc1cncc(-c2ccc3[nH]nc(-c4nc5c(-c6cccc(F)c6)cccc5[nH]4)c3n2)c1 [Compound 1, N-(5-(3-(4-(3-Fluorophenyl)-1H-benzo[d]imidazol-2-yl)-1H-pyrazolo[4,3-b]pyridin-5-yl)pyridin-3-yl)propionamide]	> 10000		99	49.2
CC(C)CC(=O)Nc1cncc(-c2ccc3[nH]nc(-c4nc5c(-c6cccc(F)c6)cccc5[nH]4)c3n2)c1 [Compound 2, N-(5-(3-(4-(3-Fluorophenyl)-1H-benzo[d]imidazol-2-yl)-1H-pyrazolo[4,3-b]pyridin-5-yl)pyridin-3-yl)-3-methylbutanamide]	6690	21	57	
CN(C)c1cncc(-c2ccc3[nH]nc(-c4nc5c(-c6cccc(F)c6)cccc5[nH]4)c3n2)c1 [Compound 7, 5-(3-(4-(3-fluorophenyl)-1H-benzo[d]imidazol-2-yl)-1H-pyrazolo[4,3-b]pyridin-5-yl)-N,N-dimethylpyridin-3-amine]	9500	30	53	
CN(C)Cc1cncc(-c2ccc3[nH]nc(-c4nc5c(-c6cccc(F)c6)cccc5[nH]4)c3n2)c1 [Compound 13, 1-(5-(3-(4-(3-Fluorophenyl)-1H-benzo[d]imidazol-2-yl)-1H-pyrazolo[4,3-b]pyridin-5-yl)pyridin-3-yl)-N,N-dimethylmethanamine]	1370	30	85	
Fc1cccc(-c2cccc3[nH]c(-c4n[nH]c5ccc(-c6ccncc6)nc45)nc23)c1 [Compound 18, 3-(4-(3-Fluorophenyl)-1H-benzo[d]imidazol-2-yl)-5-(pyridin-4-yl)-1H-pyrazolo[4,3-b]pyridine]	3620		39	
Cc1cn(-c2cccc3[nH]c(-c4n[nH]c5ccc(-c6cncc(NC(=O)CC(C)C)c6)nc45)nc23)cn1 [Compound 198, 3-Methyl-N-(5-(3-(4-(4-methyl-1H-imidazol-1-yl)-1H-benzo[d]imidazol-2-yl)-1H-pyrazolo[4,3-b]pyridin-5-yl)pyridin-3-yl)butanamide]	> 10000		44	30.8
Cc1cn(-c2cccc3[nH]c(-c4n[nH]c5ccc(-c6cncc(NC(=O)C(C)(C)C)c6)nc45)nc23)cn1 [Compound 204, N-(5-(3-(4-(4-Methyl-1H-imidazol-1-yl)-1H-benzo[d]imidazol-2-yl)-1H-pyrazolo[4,3-b]pyridin-5-yl)pyridin-3-yl)pivalamide]	6380	10	78	
Cc1cn(-c2cccc3[nH]c(-c4n[nH]c5ccc(-c6cncc(CN7CCCC7)c6)nc45)nc23)cn1 [Compound 210, 3-(4-(4-Methyl-1H-imidazol-1-yl)-1H-benzo[d]imidazol-2-yl)-5-(5-(pyrrolidin-1-ylmethyl)pyridin-3-yl)-1H-pyrazolo[4,3-b]pyridine]	> 10000	7	193	33.2
Cc1cn(-c2cccc3[nH]c(-c4n[nH]c5ccc(-c6cncc(NC(=O)C7CCC7)c6)nc45)nc23)cn1 [Compound 217, N-(5-(3-(4-(4-Methyl-1H-imidazol-1-yl)-1H-benzo[d]imidazol-2-yl)-1H-pyrazolo[4,3-b]pyridin-5-yl)pyridin-3-yl)cyclobutanecarboxamide]	> 10000		32	51.9

The next lines start with results.

EC50 (IL-6 (THP-1 cells)) [nM]	EC50 [1] [nM]	Structure (SMILES)	Emax [1] [%]	inhibition at 10 µM (IL-6 (THP-1 cells)) [%]
> 10000	10	c1cncc(-c2ccc3[nH]nc(-c4nc5ccccc5[nH]4)c3n2)c1 [Compound 256, 3-(1H-Benzo[d]imidazol-2-yl)-5-(pyridin-3-yl)-1H-pyrazolo[4,3-b]pyridine]	85	0
> 10000		Cc1ccncc1-c1ccc2[nH]nc(-c3nc4c(-c5ccsc5)cccc4[nH]3)c2n1 [Compound 285, 5-(4-Methylpyridin-3-yl)-3-(4-(thiophen-3-yl)-1H-benzo[d]imidazol-2-yl)-1H-pyrazolo[4,3-b]pyridine]	32	36.3
4480		FC1(F)CCN(Cc2cncc(-c3ccc4[nH]nc(-c5nc6c(-c7ccsc7)cccc6[nH]5)c4n3)c2)C1 [Compound 306, 5-(5-((3,3-Difluoropyrrolidin-1-yl)methyl)pyridin-3-yl)-3-(4-(thiophen-3-yl)-1H-benzo[d]imidazol-2-yl)-1H-pyrazolo[4,3-b]pyridine]	39	
> 10000		CCNCc1cncc(-c2ccc3[nH]nc(-c4nc5c(-c6ccoc6)cccc5[nH]4)c3n2)c1 [Compound 314, N-((5-(3-(4-(Furan-3-yl)-1H-benzo[d]imidazol-2-yl)-1H-pyrazolo[4,3-b]pyridin-5-yl)pyridin-3-yl)methyl)ethanamine]	32	15.6
2100		CCC(=O)Nc1cncc(-c2ccc3[nH]nc(-c4nc5c(-c6cccs6)cccc5[nH]4)c3n2)c1 [Compound 337, N-(5-(3-(4-(Thiophen-2-yl)-1H-benzo[d]imidazol-2-yl)-1H-pyrazolo[4,3-b]pyridin-5-yl)pyridin-3-yl)propionamide]	57	
3670	100	CN(C)c1cncc(-c2ccc3[nH]nc(-c4nc5c(-c6cccs6)cccc5[nH]4)c3n2)c1 [Compound 343, N,N-Dimethyl-5-(3-(4-(thiophen-2-yl)-1H-benzo[d]imidazol-2-yl)-1H-pyrazolo[4,3-b]pyridin-5-yl)pyridin-3-amine]	83	
> 10000	10	CN(C)Cc1cncc(-c2ccc3[nH]nc(-c4nc5c(-c6cccs6)cccc5[nH]4)c3n2)c1 [Compound 349, N,N-dimethyl-1-(5-(3-(4-(thiophen-2-yl)-1H-benzo[d]imidazol-2-yl)-1H-pyrazolo[4,3-b]pyridin-5-yl)pyridin-3-yl)methanamine]	51	14.5
64	10	Cc1ccc(-c2cccc3[nH]c(-c4n[nH]c5ccc(-c6cncc(N)c6)nc45)nc23)s1 [Compound 395, 5-(3-(4-(5-Methylthiophen-2-yl)-1H-benzo[d]imidazol-2-yl)-1H-pyrazolo [4,3-b]pyridin-5-yl)pyridin-3-amine]	88	
> 10000	300	Cc1ccc(-c2cccc3[nH]c(-c4n[nH]c5ccc(-c6cncc(NC(=O)C(C)C)c6)nc45)nc23)s1 [Compound 401, N-(5-(3-(4-(5-Methylthiophen-2-yl)-1H-benzo[d]imidazol-2-yl)-1H-pyrazolo [4,3-b]pyridin-5-yl)pyridin-3-yl)isobutyramide]	124	45.4
628	62	CCNCc1cncc(-c2ccc3[nH]nc(-c4nc5c(-c6cc(F)cc(NCCN(C)C)c6)cccc5[nH]4)c3n2)c1 [Compound 454, N^1-(3-(2-(5-(5-((Ethylamino)methyl)pyridin-3-yl)-1H-pyrazolo[4,3-b]pyridin-3-yl)-1H-benzo[d]imidazol-4-yl)-5-fluorophenyl)-N^2,N^2-dimethylethane-1,2-diamine]	104	
3340		CN1CCN(c2cccc3[nH]c(-c4n[nH]c5ccc(-c6cncc(OCc7ccccc7)c6)nc45)nc23)CC1 [Compound 646, 5-(5-(Benzyloxy)pyridin-3-yl)-3-(4-(4-methylpiperazin-1-yl)-1H-benzo[d]imidazol-2-yl)-1H-pyrazolo[4,3-b]pyridine]		
